Test results taken from patent US20170153225A1, “A METHOD OF SCREENING FOR A COMPOUND CAPABLE OF STIMULATING GLUCOSE TRANSPORT INTO BROWN AND/OR BRITE ADIPOCYTES OF A MAMMAL, A KIT FOR USE IN SUCH A METHOD” (ATROGI AB, priority 2014, published 2017).

Legend:
GLUT1 [1] = assay: Immunocytochemistry of total cellular GLUT1 in permeabilized cells; format: cell-based, NMRI mice; details: isoproterenol 1 μM, 2 h
Method: (§1) Brown adipocytes were isolated as described in Example 1 and seeded onto BD Falcon culture chamber slides (BD Biosciences, Franklin Lakes, N.J.). Cells were serum starved the night prior to experiment. On day 7 the cells were challenged with inhibitors for 30 min before being stimulated for 1-2 hours with drugs as indicated. Cells were washed with warm PBS and fixed for 15 min (4% formaldehyde in PBS). Cells were washed with PBS and formaldehyde quenched with 50 mM glycine in PBS, and washed three times for 5 min each with PBS. Cells were blocked for 1 h at room temperature with 8% BSA in PBS, and washed three times for 5 min each with PBS. For permeabilizing the cells, the cells were treated with 10% triton x in PBS (dilution 1:40) before blocking. Primary antibody (2 μg/ml GLUT1 antibody (AbCam, Cambridge, UK), 1.5% BSA in PBS) was added and slides incubated over night at 4° C. The next day the cells were washed three times for 5 min each with PBS. Slides were then incubated with secondary antibody (3 μg/ml alexa488 conjugated goat antirabbit IgG (Invitrogen, Paisley, UK), 3% BSA in PBS) and washed three times for 5 min each with PBS. Slides were mounted with mounting media (8% 1,4-diazabicyclooctane, 75% glycerol in PBS) and sealed.

GLUT1 [2] = assay: Immunocytochemistry of plasma membrane GLUT1 (translocation) in non-permeabilized cells; format: cell-based, NMRI mice; details: KU 0063794 1 μM, isoproterenol 1 μM, 2 h, p=0.0153, n=3
Method: as §1

BAT = assay: Glucose uptake in brown fat (BAT) in vivo, [3H]-2DG; design: species or system FVB mice; details: n=5
Method: Groups of FVB mice were fasted for 5 hours prior to study and anesthetized with pentobarbital (60 mg per kg of body weight, i.p.). Mice were then injected with a specific mTOR inhibitor KU 0063794 (10 mg/kg i.p.) or DMSO as control. Isoproterenol (1 mg/kg ip) or saline were injected after 10 min and [^3H]-2DG (130 μCi/kg body weight ip) 20 min prior to end time. BAT was dissected […], and tissues digested with 0.5M NaOH overnight. Glucose uptake was measured by liquid scintillation counting. All experiments were conducted with ethical permission (N388/12) from the North Stockholm Animal Ethics Committee.

GLUT1 [3] = assay: Western blot of total GLUT1 protein content; format: cell-based, NMRI mice; details: isoproterenol 1 μM, 0-2 h; for total GLUT1 protein content (Western blot): in presence or absence of 1 μM KU 0063794, p=0.0067 and p=0.0017, n=3
Method: Brown adipocytes were grown as described in Example 1 and differentiated in 12 well plates and serum starved the night prior to experiment. On day 7 the cells were challenged with inhibitors for 30 min before being stimulated with drugs as indicated. Lysates were prepared in prewarmed (65° C.) sample buffer (62.5 mM Tris pH 6.8, 2% SDS, 10% glycerol, 50 mM dithiothreitol, 0.1% bromophenol blue) and boiled for 5 min. Samples were loaded on a 8 or 12% acrylamide gel and separated for 2 hours at 100 V. Proteins were transferred to Hybond-P polyvinylidene difluoride membranes (pore size […]; Amersham Biosciences, Arlington Heights, Ill.). The primary GLUT1 antibody (diluted 1:1000) was from AbCam (Cambridge, UK). The primary antibody was detected using a secondary antibody (horseradish peroxidase-linked anti-rabbit IgG, Cell Signaling) diluted 1:2000 and enhanced chemiluminescence (ECL, Amersham Biosciences). Images were quantified using Image J 1.46r. […] Western blot of GLUT1 protein content in mature brown adipocytes was quantified after isoproterenol stimulation (1 μM, 0-2 h) in presence or absence of 1 μM KU 0063794.

mTOR = mTOR phosphorylation at Ser2481 and Ser2448 by western blot; format: cell-based; details: 1 μM isoprenaline, 2 hours
Description: The immunoblot is representative of three experiments performed.

[4] = system: mature brown adipocytes primary cultures; assay: 2-deoxy-D-[1-3H]-glucose uptake in vitro in mature primary brown adipocytes; format: cell-based, NMRI mice; details: for glucose uptake: isoproterenol 1 μM, 2 hours, p=0.0042, n=4-6
Method: Brown fat primary cells were isolated from NMRI mice (3-4 week-old) purchased from Nova-SCB AB, Sweden. All experiments were conducted with ethical permission (N388/12) from the North Stockholm Animal Ethics Committee. Animals were euthanized by CO2, and brown fat precursor cells were isolated from the intrascapular, axillary and cervical brown adipocyte depots as previously described (Hutchinson, Bengtsson 2006, Hutchinson, Chernogubova et al. 2006). The tissue was minced and transferred to a HEPES-buffered solution (pH 7.4) containing 0.2% (wt/vol) crude collagenase type II. Routinely, tissue from 6 mice was digested in 10 ml of the HEPES-buffered solution. The tissue was digested for 30 minutes at 37° C., with constant vortexing. The digest was filtered through a 250 μm filter and the solution incubated on ice for 15 min to allow the mature adipocytes and fat droplets to float. The infranatant was filtered through a 25 μm filter, centrifuged (10 min, 700×g), the pellet resuspended in DMEM (4.5 g D-glucose/l) and recentrifuged. The pellet was finally resuspended in 0.5 ml cell culture medium per mouse dissected. The cell culture medium consisted of DMEM (4.5 g D-glucose/l) supplemented with 10% newborn calf serum, 2.4 nM insulin, […], 50 IU/ml penicillin, 50 μg/ml streptomycin and 25 μg/ml sodium ascorbate. Aliquots of 0.1 ml cell suspension were cultured in 12-well culture dishes with 0.9 ml of cell culture medium. Cultures were incubated in a 37° C. humidified atmosphere of 8% CO2 in air. On days 1, 3 and 5, the cell culture medium was renewed. Cells were used on day 7.
Glucose uptake in vitro was performed as previously described (Yamamoto, Hutchinson et al. 2007). On day 7 the cells were treated with inhibitors for 30 min before addition of isoproterenol for 2 hours, unless otherwise indicated. […] Reactions were terminated by washing in ice-cold PBS, cells lysed (400 μl of 0.2 M NaOH, 1 h at 60° C.) and the incorporated radioactivity determined by liquid scintillation counting.

mouse rictor = assay: Rictor knock down with siRNA, then glucose uptake or western blotting; format: cell-based; details: 2.5 μg/ml siRNA
Method: Primary brown adipocytes were used on day 3 and transfected with K2 Transfection System (Biontex laboratories) according to manufacturer's protocol using 2.5 μg/ml of siRNA (sequence: […]) directed against mouse rictor (from Sigma). 24 h after transfection, glucose uptake or western blotting was performed as described above.

COc1ccc(-c2ccc3c(N4CCOCC4)nc(N4C[C@@H](C)O[C@@H](C)C4)nc3n2)cc1CO [KU 0063794]
effect of mTOR inhibitor on stimulated de novo synthesis of GLUT1, permeabilized cells (GLUT1 [1]; KU 0063794 1 μM): not inhibited by inhibition of mTOR
inhibition of isoproterenol-stimulated translocation of GLUT1 to the plasma membrane (GLUT1 [2]): prevents the translocation of GLUT1 to the plasma membrane
reduction of isoproterenol stimulated glucose uptake in vivo (BAT; KU 0063794 before isoproterenol 1 mg/kg ip, p=0.0175): significantly reduced
effect of mTOR inhibitor on isoproterenol-increased GLUT1 content (Western blot) (GLUT1 [3]; KU 0063794 1 μM): mTOR independent manner

CC(C)NCC(O)c1ccc(O)c(O)c1 (centres unmarked) [Isoproterenol]
mTOR phosphorylation at Ser2448 (mTOR): not at Ser2448
glucose uptake [4]: increase glucose uptake
glucose uptake ([4]; listed as isoproterenol): increases glucose uptake
total cellular GLUT1 (de novo synthesis), permeabilized cells (GLUT1 [1]; p=0.0334, n=3): de novo synthesis can be stimulated
glucose uptake in brown fat in vivo (BAT; isoproterenol 1 mg/kg ip): stimulated glucose uptake in vivo
total GLUT1 protein content (Western blot) (GLUT1 [3]): significantly increase the amount of GLUT1
total GLUT1 protein content (Western blot) (GLUT1 [3]; listed as isoproterenol): increased total GLUT1 content

siRNA directed against mouse rictor: siRNA (sequence: CAGAAAGCAATCGCAACTCACCACA) directed against mouse rictor (from Sigma) (chemistry not given here)
inhibition of isoproterenol (GPCR) stimulated glucose uptake by rictor knock down (mouse rictor; 24 h after transfection, p=0.0105, n=3): fully inhibited
rictor protein after knock down (mouse rictor; K2 transfection system): reduction of rictor protein

CCC(=O)N1CCN(c2ccc(-n3c(=O)ccc4cnc5ccc(-c6cnc7ccccc7c6)cc5c43)cc2C(F)(F)F)CC1 [Torin-1]
inhibition of isoproterenol stimulated glucose uptake ([4]; Torin-1 1 μM, 30 min before isoproterenol 1 μM): full inhibition of glucose uptake
